Experimental data published in patent US8101212B2, “Bioactive botanical cosmetic compositions and processes for their production” (Akzo Nobel Surface Chemistry LLC, priority 2002, dated 2012).
Converted amounts (≈) assume the structure as drawn.

How the values were obtained:
gelatinase B (MMP-9) = molecular target: T1, gelatinase B (MMP-9) (Homo sapiens, UniProt P14780); assay: Gelatinase B inhibitory activity (MMP-9 Activity ELISA); format: biochemical
T1 construct: purchased Amersham Pharmacia
Description: Neutrophils contain two major enzymes from the class of matrix metalloproteinases, which collectively are implicated in extensive connective tissue destruction: neutrophil collagenase (MMP-8) and gelatinase B (MMP-9). Because elastase has poor activity against native collagen, and neutrophil collagenase alone cannot solubilize the connective tissue protein by itself, gelatinase B is considered as a major contributor to inflammatory injury to the extracellular matrix. A specific assay for this enzyme was used to evaluate the potential of cosmetic botanical ingredients to inhibit degradation of the extracellular matrix mediated by inflammatory cell-derived matrix metalloproteinases. Gelatinase B activity was detected by hydrolysis of a low molecular weight synthetic substrate (APMA). Inhibitors of gelatinase B diminish the accelerating rate of enzyme reaction product formation in a dose-dependent fashion. Such enzyme inhibition was found when tested cosmetic ingredients were added to the reaction mixture. Method 6: Method for Determination of Gelatinase B Inhibitory Activity. […] The enzymatic activity was detected at 405 nm by hydrolysis of a low molecular weight synthetic substrate for Gelatinase B: APMA. […]

[1] = Superoxide scavenging activity (xanthine oxidase system, cytochrome c reduction); format: biochemical
Description: Reactive oxygen species generated by activated inflammatory cells (endogenous or exogenous) create specific oxidant which was used to provide the measurements of superoxide scavenging activity. The assay used for evaluation of superoxide scavenging activity relates to the one form of antioxidant activity, which is of benefit in neutralizing the damage associated with oxidation. To generate superoxide anions in high yield and in a controlled fashion, an enzymatic system (xanthine oxidase) was used. The conversion of […] by this enzyme generates amounts of superoxide anions, which are stoichiometric with the amount of substrate provided. The assay used was based on the reduction of cytochrome c from its ferric to ferrous form as a sensitive measure of superoxide levels. […] Method 7: Method for Determination of Superoxide Scavenging Activity. The enzymatic system, which uses xanthine oxidase (a purified enzyme preparation produced by “Sigma”), was used to generate superoxide anions in high yield and in a controlled fashion. The conversion of xanthine to hydroxanthine by this enzyme generates amounts of superoxide anions and reduction of ferricytochrome c to ferrocytochrome c was used as a sensitive measure of superoxide levels. […]

3T3 fibroblasts = assay: Neutral red uptake (NRU) cytotoxicity test; format: cell-based; set-up: key to Cell Morphology: NCM: Normal Cell Morphology; MLT: Moderate Level of Toxicity
Description: As an example, a test involving neutral red uptake (NRU) by 3T3 fibroblasts, which is commonly used for determination of cytotoxicity, was utilized to assess cytotoxicity of cosmetic botanical ingredients. The NRU value is proportional to the number of viable cells in this in vitro test population.

T1 sequence (P14780 94-707): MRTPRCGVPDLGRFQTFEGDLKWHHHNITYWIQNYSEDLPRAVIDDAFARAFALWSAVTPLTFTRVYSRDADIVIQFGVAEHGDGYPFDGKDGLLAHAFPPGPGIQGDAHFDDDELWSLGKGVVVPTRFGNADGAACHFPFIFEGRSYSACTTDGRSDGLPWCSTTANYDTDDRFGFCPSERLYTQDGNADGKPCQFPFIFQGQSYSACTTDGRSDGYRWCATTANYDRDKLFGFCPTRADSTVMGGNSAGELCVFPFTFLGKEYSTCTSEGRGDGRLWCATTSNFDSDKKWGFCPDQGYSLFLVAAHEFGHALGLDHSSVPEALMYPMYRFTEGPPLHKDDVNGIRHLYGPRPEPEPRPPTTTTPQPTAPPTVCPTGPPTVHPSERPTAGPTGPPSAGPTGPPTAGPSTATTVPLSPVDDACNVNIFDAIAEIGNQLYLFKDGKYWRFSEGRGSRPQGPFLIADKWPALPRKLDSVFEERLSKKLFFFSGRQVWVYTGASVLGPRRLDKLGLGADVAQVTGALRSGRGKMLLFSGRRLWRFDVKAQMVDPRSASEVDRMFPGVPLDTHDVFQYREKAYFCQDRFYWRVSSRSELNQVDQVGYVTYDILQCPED

| IC50 (gelatinase B (MMP-9)) [µM] | inhibition at 100 µg/mL (gelatinase B (MMP-9); read-out: % Inhibition [100 μg/ml]) [%] | IC50 (superoxide scavenging activity) ([1]; Tables 35 and 36) [µg/mL] | Compound | ICR50 ([1]; Table 29) [μg Dry Matter/mL] | NRU50 of positive control (3T3 fibroblasts) | Cell Morphology (3T3 fibroblasts; Table 27) | Cell Morphology (3T3 fibroblasts; Table 28, marigold flower products) | NRU50 (3T3 fibroblasts; Tables 27 and 28) |
| --- | --- | --- | --- | --- | --- | --- | --- | --- |
| 83.3 | 91 | 26.5 (≈ 73.5 µM) | O=C(/C=C/c1ccc(O)c(O)c1)O[C@H](Cc1ccc(O)c(O)c1)C(=O)O [Rosmarinic Acid, rosmarinic acid] | 26.5 |  |  |  |  |
|  |  |  | EGF: Epidermal Growth Factor (EGF) used as a positive control |  | > 2,500 μg/ml | NCM | NCM | >2,500 μg Dry Matter/mL |
